For 45 compounds, melting point results are on record in patent publication US6413956B1, “Substituted 4-oxo-quinoline-3-carboxamides” (Neurogen Corporation, priority 1999, dated 2002).

The compound `O=C(NCc1cccs1)c1c[nH]c2ccccc2c1=O` [compound 13, N-[(2-Thienyl)methyl] 4-oxo-1,4-dihydro-quinoline-3-carboxamide] showed a melting point of 235 to 240 °C. Then `CN(C)Cc1ccc(CNC(=O)c2c[nH]c3ccc(Cl)cc3c2=O)cc1.Cl`, with 198 °C (dec.). In the case of `CCOCCCNC(=O)c1c[nH]c2ccc(OCC)cc2c1=O` [compound 42, N-[(3-Ethoxy)propyl] 6-ethoxy-4-oxo-1,4-dihydro-quinoline-3-carboxamide] it was 179 to 181 °C. Then `CCCCNC(=O)c1c[nH]c2ccc(OCC)cc2c1=O` [compound 53, N-Butyl 6-ethoxy-4-oxo-1,4-dihydro-quinoline-3-carboxamide], with 190 to 191 °C; and `CCOc1ccc2[nH]cc(C(=O)NCC(C)C)c(=O)c2c1` [compound 56, N-[(2-Methyl)propyl] 6-ethoxy-4-oxo-1,4-dihydro-quinoline-3-carboxamide], with 214 to 216 °C. As to `CCNCc1cccc(CNC(=O)c2c[nH]c3ccc(Cl)cc3c2=O)c1` [compound 28, N-[3-(Ethylaminomethyl)benzyl] 6-chloro-4-oxo-1,4-dihydro-quinoline-3-carboxamide], the melting point is 148 °C (dec.). Then `CCCCNC(=O)c1c[nH]c2c(F)cccc2c1=O.Cl`, with 205 to 207 °C; and `COCc1ccc2[nH]cc(C(=O)NCc3ccccc3)c(=O)c2c1` [compound 31, N-Benzyl 6-methoxymethyl-4-oxo-1,4-dihydro-quinoline-3-carboxamide], with 195 to 196 °C; and `COCc1ccc2[nH]cc(C(=O)NCc3cccs3)c(=O)c2c1` [compound 32, N-[(2-Thienyl)methyl] 6-methoxymethyl-4-oxo-1,4-dihydro-quinoline-3-carboxamide], with 225 to 226 °C.

`COc1ccc(CNC(=O)c2c[nH]c3ccccc3c2=O)cc1OC` [compound 12, N-(3,4-Dimethoxybenzyl) 4-oxo-1,4-dihydro-quinoline-3-carboxamide]: the melting point was 211 to 212 °C.

Compound `CCCCNC(=O)c1c[nH]c2ccc(COC)cc2c1=O` [compound 34, N-Butyl 6-methoxymethyl-4-oxo-1,4-dihydro-quinoline-3-carboxamide] came in with a melting point of 157 to 159 °C. Then `CCOc1ccc2[nH]cc(C(=O)NCCC(C)C)c(=O)c2c1` [compound 45, N-Isoamyl 6-ethoxy-4-oxo-1,4-dihydro-quinoline-3-carboxamide], with 180 to 183 °C; and `Cl.O=C(NCc1ccc(CN2CCOCC2)cc1)c1c[nH]c2ccccc2c1=O`, with 177 to 180 °C; and `CCNCc1ccc(CNC(=O)c2c[nH]c3ccccc3c2=O)cc1.Cl`, with 252 °C (dec.). In the case of `O=C(NCc1ccc(F)cc1)c1c[nH]c2ccccc2c1=O` [compound 8, N-(4-Fluorobenzyl) 4-oxo-1,4-dihydro-quinoline-3-carboxamide] it was 213 to 215 °C. In the case of `CCCCCNC(=O)c1c[nH]c2ccc(OCC)cc2c1=O` [compound 54, N-Pentyl 6-ethoxy-4-oxo-1,4-dihydro-quinoline-3-carboxamide] it was 180 to 183 °C; in that of `CCOc1ccc2[nH]cc(C(=O)NCc3cccc(CN4CCOCC4)c3)c(=O)c2c1` [compound 117, N-[3-(4-Morpholinylmethyl)benzyl]-6-ethoxy-4-oxo-1,4-dihydroquinoline-3-carboxamide], 173 to 177 °C; in that of `CCOc1ccc2[nH]cc(C(=O)NCc3ccc(CNCCN4CCOCC4)cc3)c(=O)c2c1` [compound 83, N-{4-[[2-(4-Morpholinyl)ethyl]aminomethyl]benzyl} 6-ethoxy-4-oxo-1,4-dihydro-quinoline-3-carboxamide], 123 to 127 °C. Regarding `CCCNC(=O)c1c[nH]c2ccc(OCC)cc2c1=O` [compound 55, N-Propyl 6-ethoxy-4-oxo-1,4-dihydro-quinoline-3-carboxamide], the melting point lay within 219 to 221 °C. In the case of `CCOCCCNC(=O)c1c[nH]c2ccccc2c1=O` [compound 17, N-(3-Ethoxypropyl) 4-oxo-1,4-dihydro-quinoline-3-carboxamide] it was 141 to 142 °C; in that of `CCCCCCNC(=O)c1c[nH]c2ccc(OCC)cc2c1=O` [compound 57, N-Hexyl 6-ethoxy-4-oxo-1,4-dihydro-quinoline-3-carboxamide], 181 to 182 °C. In turn, `CCOc1ccc2[nH]cc(C(=O)NCc3ccc4c(c3)OCO4)c(=O)c2c1` [compound 47, N-Piperonyl 6-ethoxy-4-oxo-1,4-dihydro-quinoline-3-carboxamide] yielded a melting point of 226 to 228 °C.

Regarding `CCOc1ccc2[nH]cc(C(=O)NCc3ccc(CN(Cc4ccccc4)Cc4ccccc4)cc3)c(=O)c2c1` [compound 82, N-[4-(Dibenzylaminomethyl)benzyl] 6-ethoxy-4-oxo-1,4-dihydro-quinoline-3-carboxamide], the melting point lay within 162 to 164 °C. In the case of `CCOc1ccc2[nH]cc(C(=O)NCC3CCCO3)c(=O)c2c1` (stereo not drawn) [compound 44, N-[(2-Tetrahydrofuranyl)methyl] 6-ethoxy-4-oxo-1,4-dihydro-quinoline-3-carboxamide] it was 181 to 182 °C; in that of `CCOc1ccc2[nH]cc(C(=O)NCc3ccc(CN(C)CCc4ccccc4)cc3)c(=O)c2c1` [compound 99, N-{4-[(N-Methyl-N-phenethylamino)methyl]benzyl} 6-ethoxy-4-oxo-1,4-dihydroquinoline-3-carboxamide], 137 to 139 °C.

`CCOc1ccc2[nH]cc(C(=O)NCc3cccnc3)c(=O)c2c1` [compound 52, N-[(3-Pyridyl)methyl] 6-ethoxy-4-oxo-1,4-dihydro-quinoline-3-carboxamide] yielded a melting point of 222 to 224 °C. Compound `Cc1ccc2[nH]cc(C(=O)NCc3cccc(CN4CCOCC4)c3)c(=O)c2c1` [compound 127, N-[3-(4-Morpholinylmethyl)benzyl]-6-methyl-4-oxo-1,4-dihydroquinoline-3-carboxamide] showed a melting point of 140 to 144 °C. Then `CCOc1ccc2[nH]cc(C(=O)NCc3ccccc3F)c(=O)c2c1` [compound 49, N-(2-Fluorobenzyl) 6-ethoxy-4-oxo-1,4-dihydro-quinoline-3-carboxamide], with 237 to 238 °C; and `O=C(NCc1ccco1)c1c[nH]c2ccccc2c1=O` [compound 9, N-[(2-Furanyl)methyl] 4-oxo-1,4-dihydro-quinoline-3-carboxamide], with 193 to 195 °C; and `CNC(C)c1cccc(CNC(=O)c2c[nH]c3ccc(Cl)cc3c2=O)c1.Cl` (stereo not drawn), with 184 °C (dec.). In the case of `CCOc1ccc2[nH]cc(C(=O)NCc3ccc(CN4CCCCC4)cc3)c(=O)c2c1` [compound 102, N-{4-[(1-Piperidinyl)methyl]benzyl} 6-ethoxy-4-oxo-1,4-dihydroquinoline-3-carboxamide] it was 172 to 174 °C; in that of `CCOc1ccc2[nH]cc(C(=O)NCCCOC(C)C)c(=O)c2c1` [compound 43, N-[(3-Isopropoxy)propyl] 6-ethoxy-4-oxo-1,4-dihydro-quinoline-3-carboxamide], 163 to 164 °C; in that of `O=C(NCc1ccccc1)c1c[nH]c2ccccc2c1=O` [compound 5, N-Benzyl 4-oxo-1,4-dihydro-quinoline-3-carboxamide], 173 °C. In the case of `CCOc1ccc2[nH]cc(C(=O)NCCCOC)c(=O)c2c1` [compound 48, N-[(3-Methoxy)propyl] 6-ethoxy-4-oxo-1,4-dihydro-quinoline-3-carboxamide] it was 175 to 177 °C; in that of `CCOc1ccc2[nH]cc(C(=O)NCc3ccccn3)c(=O)c2c1` [compound 51, N-[(2-Pyridyl)methyl] 6-ethoxy-4-oxo-1,4-dihydro-quinoline-3-carboxamide], 221 to 222 °C. `CCOc1ccc2[nH]cc(C(=O)NCc3ccc(CN4CCCC4)cc3)c(=O)c2c1` [compound 103, N-{4-[(1-Pyrrolidinyl)methyl]benzyl} 6-ethoxy-4-oxo-1,4-dihydroquinoline-3-carboxamide] came in with a melting point of 168 to 171 °C. Then `O=C(NCC1CCCO1)c1c[nH]c2ccccc2c1=O` (stereo not drawn) [compound 1, N-tetrahydrofurfuryl 4-oxo-1,4-dihydro-quinoline-3-carboxamide], with 205 to 209 °C; and `Cc1nc(Cc2ccc(CNC(=O)c3c[nH]c4ccc(F)cc4c3=O)cc2)c[nH]1.Cl`, with 120 to 122 °C. In the case of `COc1ccc2[nH]cc(C(=O)NCc3cccc(CN(C)Cc4ccccc4)c3)c(=O)c2c1` [compound 130, N-[3-(N-Benzyl-N-methylaminomethyl)benzyl]-6-methoxy-4-oxo-1,4-dihydroquinoline-3-carboxamide] it was 186 to 188 °C; in that of `Cl.O=C(NCc1ccccc1)c1c[nH]c2c(F)cccc2c1=O`, 235 to 237 °C; in that of `CCOc1ccc2[nH]cc(C(=O)NCc3ccc(CN(CC)Cc4ccccc4)cc3)c(=O)c2c1` [compound 97, N-{4-[(N-Benzyl-N-ethylamino)methyl]benzyl} 6-ethoxy-4-oxo-1,4-dihydroquinoline-3-carboxamide], 129 to 132 °C. For `CCOc1ccc2[nH]cc(C(=O)NCc3ccccc3)c(=O)c2c1` [compound 39, N-Benzyl 6-ethoxy-4-oxo-1,4-dihydro-quinoline-3-carboxamide], the melting point was 209 to 211 °C. In the case of `CCOc1ccc2[nH]cc(C(=O)NCc3ccsc3)c(=O)c2c1` [compound 59, N-[(3-Thienyl)methyl] 6-ethoxy-4-oxo-1,4-dihydro-quinoline-3-carboxamide] it was 203 to 205 °C; in that of `CN(C)Cc1cccc(CNC(=O)c2c[nH]c3ccc(Cl)cc3c2=O)c1.Cl`, 178 °C (dec.).

In turn, `O=C(NCc1ccc(F)cc1)c1c[nH]c2ccc(Cl)cc2c1=O` [compound 73, N-4-Fluorobenzyl 6-chloro-4-oxo-1,4-dihydroquinoline-3-carboxamide] had a melting point of 273 to 276 °C.

The melting point is the temperature, or range, at which the solid turns liquid.
